Reference: patent US11771709B2, “ALK protein degradation agent and anti-tumor application thereof” (ShanghaiTech University, priority 2017, dated 2023)

Assays:
Type in all cases: cell-based
SR (NPM-ALK) cells = assay: Growth inhibition IC50 in ALCL SR cells (CCK8/WST, 72 hours); conditions: SR cells, WST
Protocol: SR (NPM-ALK) and NCI-H2228 (EML4-ALK, V3) cells were purchased from ATCC. […] All Cells were cultured in RPMI1640 medium with 10% FBS and Penicillin-Streptomycin in 37° C. incubator with 5% CO2.
Cells were seeded at specific density in 96 well plates one day before treatment. […] Viable cells were measured via CCK8 reagent and IC50s were calculated via Prism Graphad. Experiments were repeated at least three times.

[1] = biological target: T1, ALK protein in SR (NPM-ALK) cells (Homo sapiens, UniProt Q9UM73); assay: Western blot of ALK protein level (degradation, DC50), ALK phosphorylation and downstream signaling in SR cells; conditions: for DC50: ALK protein degradation in SR cells; for concentration at which ALK proteins were degraded: SR cells, western blot
T1 construct: NPM (nucleophosmin, NPM1, P06748) fusion partner; host or cells: SR (ALCL) cells; the other entry of the earlier key: NPM1 (P06748, Nucleophosmin)

[2] = biological target: T2, ALK protein in H3122 (EML4-ALK) cells (Homo sapiens, UniProt Q9UM73); assay: Western blot of ALK protein level (degradation, DC50), ALK phosphorylation and downstream signaling in H3122 cells; conditions: ALK protein degradation in H3122 cells
T2 construct: EML4 (Echinoderm microtubule-associated protein-like 4, Q9HC35) fusion partner, variant 1; host or cells: NCI-H3122 lung adenocarcinoma cells; the other entry of the earlier key: EML4 (Q9HC35, Echinoderm microtubule-associated protein-like 4)

[3] = 72 h, Brigatinib-based PROTAD molecules (Table 3)
[4] = Alectinib based ALK PROTAD compounds (Table 4)

T2 sequence (Q9UM73 with tags, fused parts or gaps): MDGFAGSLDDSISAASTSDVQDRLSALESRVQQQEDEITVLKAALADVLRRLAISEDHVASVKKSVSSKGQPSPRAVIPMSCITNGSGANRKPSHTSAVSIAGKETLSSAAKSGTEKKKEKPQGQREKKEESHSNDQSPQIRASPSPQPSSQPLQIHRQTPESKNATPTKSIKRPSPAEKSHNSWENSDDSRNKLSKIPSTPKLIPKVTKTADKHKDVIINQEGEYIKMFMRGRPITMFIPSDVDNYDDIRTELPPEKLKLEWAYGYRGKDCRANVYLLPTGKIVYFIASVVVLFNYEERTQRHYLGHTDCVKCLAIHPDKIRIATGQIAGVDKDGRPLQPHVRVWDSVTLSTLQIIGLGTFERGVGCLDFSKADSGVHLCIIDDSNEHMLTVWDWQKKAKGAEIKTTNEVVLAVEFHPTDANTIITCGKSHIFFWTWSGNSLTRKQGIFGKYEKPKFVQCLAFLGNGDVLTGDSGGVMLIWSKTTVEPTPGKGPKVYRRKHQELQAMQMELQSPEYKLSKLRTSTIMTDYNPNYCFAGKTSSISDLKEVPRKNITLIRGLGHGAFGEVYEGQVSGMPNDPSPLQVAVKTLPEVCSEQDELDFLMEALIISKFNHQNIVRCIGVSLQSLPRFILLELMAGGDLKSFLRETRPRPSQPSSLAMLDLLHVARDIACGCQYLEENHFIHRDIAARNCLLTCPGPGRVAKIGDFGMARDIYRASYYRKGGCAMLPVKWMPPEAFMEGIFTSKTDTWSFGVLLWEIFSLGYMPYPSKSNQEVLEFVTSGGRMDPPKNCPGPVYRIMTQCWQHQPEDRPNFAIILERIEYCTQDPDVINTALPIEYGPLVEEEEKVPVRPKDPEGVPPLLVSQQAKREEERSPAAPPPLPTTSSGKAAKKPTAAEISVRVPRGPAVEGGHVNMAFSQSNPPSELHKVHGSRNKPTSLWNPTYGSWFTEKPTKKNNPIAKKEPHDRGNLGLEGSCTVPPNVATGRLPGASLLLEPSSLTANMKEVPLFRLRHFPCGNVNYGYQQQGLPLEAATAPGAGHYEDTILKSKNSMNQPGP
T1 sequence (Q9UM73 with tags, fused parts or gaps): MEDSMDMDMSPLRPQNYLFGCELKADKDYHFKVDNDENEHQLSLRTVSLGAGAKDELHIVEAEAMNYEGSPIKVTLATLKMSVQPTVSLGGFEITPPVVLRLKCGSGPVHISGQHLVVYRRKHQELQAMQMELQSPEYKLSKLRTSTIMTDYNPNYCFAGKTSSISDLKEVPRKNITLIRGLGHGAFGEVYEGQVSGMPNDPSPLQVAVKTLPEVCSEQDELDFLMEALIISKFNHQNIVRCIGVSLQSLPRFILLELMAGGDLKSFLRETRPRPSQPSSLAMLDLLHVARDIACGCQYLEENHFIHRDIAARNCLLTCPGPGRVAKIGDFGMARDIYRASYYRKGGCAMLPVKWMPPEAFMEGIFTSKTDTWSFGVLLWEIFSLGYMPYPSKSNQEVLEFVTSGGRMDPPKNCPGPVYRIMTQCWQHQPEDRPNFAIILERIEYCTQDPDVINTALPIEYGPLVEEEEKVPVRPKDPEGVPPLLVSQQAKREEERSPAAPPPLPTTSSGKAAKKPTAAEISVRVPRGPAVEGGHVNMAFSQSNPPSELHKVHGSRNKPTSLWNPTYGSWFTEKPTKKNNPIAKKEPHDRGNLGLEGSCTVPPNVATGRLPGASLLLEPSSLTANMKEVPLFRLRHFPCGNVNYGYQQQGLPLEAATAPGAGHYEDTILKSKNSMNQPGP

Row | SMILES | IC50 (SR (NPM-ALK) cells; [3]) [nM] | DC50 [1] [nM] | DC50 (nM)) in H3122 [2] [nM] | DC50 [2] [nM] | IC50 (SR (NPM-ALK) cells; [4]) [nM] | concentration at which ALK proteins were degraded [1] [nM]
1 | COc1cc(N2CCC(N3CCN(C(=O)CCOCCOCCOCCOCCOCCNc4cccc5c4C(=O)N(C4CCC(=O)NC4=O)C5=O)CC3)CC2)ccc1Nc1ncc(Cl)c(Nc2ccccc2P(C)(C)=O)n1 (stereo not drawn) [SIAIS164017, 4-((18-(4-(1-(4-((5-chloro-4-((2-(dimethylphosphoryl)phenyl)amino)pyrimidin-2-yl)amino)-3-methoxyphenyl)piperidin-4-yl)piperazin-l-yl)-18-oxo-3,6,9,12,15-pentaoxaoctadecyl)amino)-2-(2,6-dioxopiperidin-3-yl)isoindoline-1,3-dione] | 14 ± 8.6 | 100 to 500 | 0.02 to 20 | – | – | –
2 | COc1cc(N2CCN(C(=O)CCCCCCNc3cccc4c3C(=O)N(C3CCC(=O)NC3=O)C4=O)CC2)ccc1Nc1ncc(Cl)c(Nc2ccccc2P(C)(C)=O)n1 (centres unmarked) [SIAIS1197077, 4-((7-(4-(4-((5-chloro-4-((2-(dimethylphosphoryl)phenyl)amino)pyrimidin-2-yl)amino)-3-methoxyphenyl)piperazin-1-yl)-7-oxoheptyl)amino)-2-(2,6-dioxopiperidin-3-yl)isoindoline-1,3-dione] | 7.9 ± 4.9 | 0.1 to 0.5 | – | 50 to 500 | – | –
3 | COc1cc(N2CCC(N3CCN(C(=O)CCOCCOCCOCCOCCOCCC(=O)N[C@H](C(=O)N4C[C@H](O)C[C@H]4C(=O)NCc4ccc(-c5scnc5C)cc4)C(C)(C)C)CC3)CC2)ccc1Nc1ncc(Cl)c(Nc2ccccc2P(C)(C)=O)n1 [SIAIS164035, (2S,4R)-1-((S)-2-(tert-butyl)-22-(4-(1-(4-((5-chloro-4-((2-(dimethylphosphoryl)phenyl)amino)pyrimidin-2-yl)amino)-3-methoxyphenyl)piperidin-4-yl)piperazin-1-yl)-4,22-dioxo-7,10,13,16,19-pentaoxa-3-azadocosanoyl)-4-hydroxy-N-(4-(4-methylthiazol-5-yl)benzyl)pyrrolidine-2-carboxamide] | 41.8 ± 24.7 | 100 to 500 | – | 100 to 500 | – | –
4 | COc1cc(N2CCN(C(=O)CCCCCCCC(=O)N[C@H](C(=O)N3C[C@H](O)C[C@H]3C(=O)NCc3ccc(-c4scnc4C)cc3)C(C)(C)C)CC2)ccc1Nc1ncc(Cl)c(Nc2ccccc2P(C)(C)=O)n1 [SIAIS1197155, (2S,4R)-1-((S)-2-(9-(4-(4-((5-chloro-4-((2-(dimethylphosphoryl)phenyl)amino)pyrimidin-2-yl)amino)-3-methoxyphenyl)piperazin-1-yl)-9-oxononanamido)-3,3-dimethylbutanoyl)-4-hydroxy-N-(4-(4-methylthiazol-5-yl)benzyl)pyrrolidine-2-carboxamide] | 3.4 ± 0.5 | 1 to 10 | – | 1 to 50 | – | –
5 | CCc1cc2c(cc1N1CCN(C(=O)CCOCCOCCNc3cccc4c3C(=O)N(C3CCC(=O)NC3=O)C4=O)CC1)C(C)(C)c1[nH]c3cc(C#N)ccc3c1C2=O (centres unmarked) [SIAIS164012, 8-(4-(3-(2-(2-((2-(2,6-dioxopiperidin-3-yl)-1,3-dioxoisoindolin-4-yl)amino)ethoxy)ethoxy)propanoyl)piperazin-1-yl)-9-ethyl-6,6-dimethyl-11-oxo-6,11-dihydro-5H-benzo[b]carbazole-3-carbonitrile] | – | 1 to 50 | – | 1 to 50 | 48.9 | –
6 | COc1cc(N2CCC(N3CCN(C(=O)CCOCCOCCOCCNc4cccc5c4C(=O)N(C4CCC(=O)NC4=O)C5=O)CC3)CC2)ccc1Nc1ncc(Cl)c(Nc2ccccc2P(C)(C)=O)n1 (centres unmarked) [SIAIS164009, 4-((2-(2-(2-(3-(4-(1-(4-((5-chloro-4-((2-(dimethylphosphoryl)phenyl)amino)pyrimidin-2-yl)amino)-3-methoxyphenyl)piperidin-4-yl)piperazin-1-yl)-3-oxopropoxy)ethoxy)ethoxy)ethyl)amino)-2-(2,6-dioxopiperidin-3-yl)isoindoline-1,3-dione] | 5.3 ± 1.7 | 1 to 10 | – | 1 to 10 | – | 1
7 | COc1cc(N2CCC(N3CCN(C(=O)CCCc4cn(CCCC(=O)N[C@H](C(=O)N5C[C@H](O)C[C@H]5C(=O)NCc5ccc(-c6scnc6C)cc5)C(C)(C)C)nn4)CC3)CC2)ccc1Nc1ncc(Cl)c(Nc2ccccc2P(C)(C)=O)n1 [SIAIS164153, (2S,4R)-1-((S)-2-(4-(4-(4-(4-(1-(4-((5-chloro-4-((2-(dimethylphosphoryl)phenyl)amino)pyrimidin-2-yl)amino)-3-methoxyphenyl)piperidin-4-yl)piperazin-1-yl)-4-oxobutyl)-1H-1,2,3-triazol-1-yl)butanamido)-3,3-dimethylbutanoyl)-4-hydroxy-N-(4-(4-methylthiazol-5-yl)benzyl)pyrrolidine-2-carboxamide] | 55.9 ± 19.9 | 100 to 500 | – | 1 to 10 | – | 1
8 | COc1cc(N2CCN(C(=O)CNc3cccc4c3C(=O)N(C3CCC(=O)NC3=O)C4=O)CC2)ccc1Nc1ncc(Cl)c(Nc2ccccc2P(C)(C)=O)n1 (centres unmarked) [SIAIS1197055, 4-((2-(4-(4-((5-chloro-4-((2-(dimethylphosphoryl)phenyl)amino)pyrimidin-2-yl)amino)-3-methoxyphenyl)piperazin-1-yl)-2-oxoethyl)amino)-2-(2,6-dioxopiperidin-3-yl)isoindoline-1,3-dione] | ~1 | 1 to 10 | – | 1 to 50 | – | –
9 | COc1cc(N2CCC(N3CCN(C(=O)CCNc4cccc5c4C(=O)N(C4CCC(=O)NC4=O)C5=O)CC3)CC2)ccc1Nc1ncc(Cl)c(Nc2ccccc2P(C)(C)=O)n1 (centres unmarked) [SIAIS164019, 4-((3-(4-(1-(4-((5-chloro-4-((2-(dimethylphosphoryl)phenyl)amino)pyrimidin-2-yl)amino)-3-methoxyphenyl)piperidin-4-yl)piperazin-1-yl)-3-oxopropyl)amino)-2-(2,6-dioxopiperidin-3-yl)isoindoline-1,3-dione] | 9.6 ± 8 | 1 to 10 | – | 10 to 20 | – | –
10 | COc1cc(N2CCC(NC(=O)CCCC(=O)N[C@H](C(=O)N3C[C@H](O)C[C@H]3C(=O)NCc3ccc(-c4scnc4C)cc3)C(C)(C)C)CC2)ccc1Nc1ncc(Cl)c(Nc2ccccc2P(C)(C)=O)n1 [SIAIS164144, N1-(1-(4-((5-chloro-4-((2-(dimethylphosphoryl)phenyl)amino)pyrimidin-2-yl)amino)-3-methoxyphenyl)piperidin-4-yl)-N5-((S)-1-((2S,4R)-4-hydroxy-2-((4-(4-methylthiazol-5-yl)benzyl)carbamoyl)pyrrolidin-1-yl)-3,3-dimethyl-1-oxobutan-2-yl)glutaramide] | 13.6 ± 9.1 | 1 to 10 | – | 20 to 100 | – | –
11 | COc1cc(N2CCC(N3CCN(C(=O)CCCCCCCC(=O)N[C@H](C(=O)N4C[C@H](O)C[C@H]4C(=O)NCc4ccc(-c5scnc5C)cc4)C(C)(C)C)CC3)CC2)ccc1Nc1ncc(Cl)c(Nc2ccccc2P(C)(C)=O)n1 [SIAIS164125, (2S,4R)-1-((S)-2-(9-(4-(1-(4-((5-chloro-4-((2-(dimethylphosphoryl)phenyl)amino)pyrimidin-2-yl)amino)-3-methoxyphenyl)piperidin-4-yl)piperazin-1-yl)-9-oxononanamido)-3,3-dimethylbutanoyl)-4-hydroxy-N-(4-(4-methylthiazol-5-yl)benzyl)pyrrolidine-2-carboxamide] | 9 ± 5.7 | 1 to 10 | – | 10 to 50 | – | –
12 | CCc1cc2c(cc1N1CCN(C(=O)CNc3cccc4c3C(=O)N(C3CCC(=O)NC3=O)C4=O)CC1)C(C)(C)c1[nH]c3cc(C#N)ccc3c1C2=O (centres unmarked) [SIAIS164028, 8-(4-((2-(2,6-dioxopiperidin-3-yl)-1,3-dioxoisoindolin-4-yl)glycyl)piperazin-1-yl)-9-ethyl-6,6-dimethyl-11-oxo-6,11-dihydro-5H-benzo[b]carbazole-3-carbonitrile] | – | 1 to 50 | – | 1 to 10 | 19.7 | –
13 | COc1cc(N2CCC(N3CCN(C(=O)CCCCC(=O)N[C@H](C(=O)N4C[C@H](O)C[C@H]4C(=O)NCc4ccc(-c5scnc5C)cc4)C(C)(C)C)CC3)CC2)ccc1Nc1ncc(Cl)c(Nc2ccccc2P(C)(C)=O)n1 [SIAIS164122, (2S,4R)-1-((S)-2-(6-(4-(1-(4-((5-chloro-4-((2-(dimethylphosphoryl)phenyl)amino)pyrimidin-2-yl)amino)-3-methoxyphenyl)piperidin-4-yl)piperazin-1-yl)-6-oxohexanamido)-3,3-dimethylbutanoyl)-4-hydroxy-N-(4-(4-methylthiazol-5-yl)benzyl)pyrrolidine-2-carboxamide] | 12.1 ± 9.2 | 1 to 50 | – | 50 to 100 | – | –
14 | COc1cc(N2CCC(N3CCN(C(=O)CCOCCOCCOCCOCCC(=O)N[C@H](C(=O)N4C[C@H](O)C[C@H]4C(=O)NCc4ccc(-c5scnc5C)cc4)C(C)(C)C)CC3)CC2)ccc1Nc1ncc(Cl)c(Nc2ccccc2P(C)(C)=O)n1 [SIAIS164034, (2S,4R)-1-((S)-2-(tert-butyl)-19-(4-(1-(4-((5-chloro-4-((2-(dimethylphosphoryl)phenyl)amino)pyrimidin-2-yl)amino)-3-methoxyphenyl)piperidin-4-yl)piperazin-1-yl)-4,19-dioxo-7,10,13,16-tetraoxa-3-azanonadecanoyl)-4-hydroxy-N-(4-(4-methylthiazol-5-yl)benzyl)pyrrolidine-2-carboxamide] | 88.6 ± 63 | 100 to 500 | – | 100 to 500 | – | –
